In PMC10603992, “Antimicrobial and Adjuvant Potencies of Di-n-alkyl Substituted Diazalariat Ethers” (Antibiotics, 2023):
In brackets after ≈: the same amount, converted by molar mass. Read-outs that look alike come from different tables or passages of the source. Blank lines part the entries; values can stand above or below the compound they belong to.

What was measured:
[1] = general value, no reference given; cited from earlier work
[2] = tested on: DH5α E. coli; experiment: MIC against DH5α E. coli; format: cell-based; conditions: Escherichia coli, read-out: Minimum inhibitory concentration against DH5α E. coli
[3] = tested on: S. aureus 1199B; experiment: MIC against S. aureus 1199B; format: cell-based, Staphylococcus aureus; conditions: for MIC: Staphylococcus aureus, 1199B, read-out: MIC S. aureus 1199B, MHII media, 90% growth inhibition
[4] = Turbidimetric solubility limit in MHII or PBS; format: physicochemical; conditions: DMSO ≤0.5%
[5] = tested on: human embryonic kidney (HEK-293) cells; experiment: Cytotoxicity against HEK-293 cells; format: cell-based; conditions: three independent trials
Text: (§1) The potential toxicity of 1–6 is a critical factor in their application either as an antimicrobial or an adjuvant. In vitro toxicity studies were therefore conducted using human embryonic kidney (HEK-293) and simian kidney (COS-7) cells. The graphs shown in Figure 20 show the percentage survival of each cell type as a function of lariat ether concentration on the logarithmic x-axis. In each graph, the IC50 value is specified for each compound and cell type. The value of IC50 is the concentration of lariat ether that inhibits the growth of 50% of the cells studied.
(§2) The cytotoxicity experiments were conducted as described in [44].

[6] = tested on: S. aureus; experiment: MIC against S. aureus under various pH and media conditions; format: cell-based, Staphylococcus aureus; conditions: for Change in MIC as the pH was increased from 6.4 to 8.4: S. aureus, Mueller Hinton medium
[7] = tested on: Tet^R E. coli; experiment: MIC against Tet^R E. coli; format: cell-based; conditions: Escherichia coli, read-out: MIC Tet^R E. coli
[8] = tested on: S. aureus 1199B; experiment: Checkerboard combination with norfloxacin; format: cell-based, Staphylococcus aureus
Text: Each of the checkerboard analyses shown in Figure 7 combines one of 1–6 with norfloxacin. S. aureus 1199B is resistant to norfloxacin. By combining varying concentrations of both norfloxacin and a lariat ether or lariat ether derivative, potency enhancement, if any, can be determined. In the graphs (checkerboards) shown, the potency of each concentration combination can be assessed visually.
In both cases, the concentrations varied by a factor of two. Four controls were employed on each checkerboard plate: full growth (only cells), no growth (only media), and then a column for each drug alone to accurately reflect their individual MIC values. The concentrations of amphiphile and antibiotic tested were ½, ¼, ^1/8, ^1/16, and ^1/32 of the MIC. Preparation of the stock solutions and plates was by the same method described in the minimum inhibitory concentration section.

[9] = tested on: K12 E. coli; experiment: MIC against K12 E. coli; format: cell-based; conditions: MHII media, 90% growth inhibition, read-out: MIC K12 E. coli
[10] = tested on: simian kidney (COS-7) cells; experiment: Cytotoxicity against COS-7 cells; format: cell-based; conditions: Chlorocebus aethiops, COS-7, percentage survival, three independent trials
Text: as §1, §2

[11] = molecular target: T1, NorA efflux pumps in S. aureus 1199B (Staphylococcus aureus, UniProt P0A0J7); experiment: Efflux pump inhibition (EthBr accumulation); format: cell-based; conditions: 3 at […] µM vs reserpine at 50 µg/mL (80 µM)
T1 construct: Increase in EthBr fluorescence observed by its accumulation in S. aureus 1199B cytosol; endogenous in cells; host or cells: Staphylococcus aureus 1199B (whole bacteria)
Text: An important reason for the choice of S. aureus 1199B for study is that its resistance to norfloxacin is known to result from the presence of the Nor A efflux pump. Efflux pumps require regulated ion balance to function so that exogeneous substances such as antibacterials can effectively be ejected. Ethidium bromide (EthBr) can penetrate bacteria and is detectable by its fluorescence. To the extent that ion homeostasis is disrupted, ion balance is deregulated, and efflux pump function is compromised or inhibited.
Experimental details have been reported in [44].

[12] = tested on: S. aureus; experiment: Membrane depolarization by DiBAC4(3) fluorescence; format: cell-based, Staphylococcus aureus; conditions: compound at ½ MIC
Method: Disruption of ion homeostasis by 1–6 should be apparent in the associated membrane depolarization. […] The dye is readily absorbed by bacteria owing to the negative internal potential. Disruption of ion homeostasis will affect both proton and potassium cation regulation. The internalized, self-quenched dye will be released and increased fluorescence will be observed.
Two types of experiments were performed to assess membrane depolarization. […] If ion homeostasis is affected by the presence of any of these compounds, the fluorescent response should increase as the lariat ether concentration increased.
A second series of experiments was performed to determine the relationship of disrupted ion homeostasis, as reflected in membrane depolarization with cellular vitality (Figure 17). […] Alamar blue (see above) was used to determine cell viability. No depolarization was apparent in the S. aureus control in the absence of a lariat ether or lariat ether derivative. Depolarization was greatest for C10LE•MeI (3). […] We note that the MIC values for S. aureus observed for 2, 3, 5, and 6 were similar.
The membrane depolarization study was conducted as described in [48].

[13] = tested on: S. aureus (1199B); experiment: Membrane permeability (propidium iodide / alamar blue); format: cell-based, Staphylococcus aureus; conditions: compound at ½ MIC
Method: Membrane permeability was assessed by using the dyes propidium iodide and alamar blue. […] However, when PI does enter a cell, it intercalates within the DNA structure. […] When intercalation occurs, a strong fluorescent emission can be detected. Alamar blue, based on resazurin, is a nontoxic weakly fluorescent dye that is sensitive to reduction potential within vital cells. When reduced, it is converted into highly fluorescent resorufin (7-hydroxy-3H-phenoxazin-3-one).
The combination of alamar blue and propidium iodide allowed us to assess the membrane permeability of S. aureus while confirming cellular vitality. Results of the PI/alamar blue studies with S. aureus are summarized in the graph of Figure 5. When S. aureus (1199B) was exposed to the two dyes, penetration of PI was relatively low and cellular vitality remained high. […] In general, cellular penetration and vitality correlated.
Membrane permeability studies were conducted as detailed in [48].

[14] = Dynamic light scattering of C12LE aggregation; format: physicochemical; conditions: for Slope of C12LE aggregation (DLS particle size): water, in the presence of the antimicrobial or C12LE alone
Method: It is known that dialkyldiazacrowns form stable aggregates in aqueous solution [57, 62]. It was hypothesized that complexation between antimicrobials and macrocycles would alter or prevent the ability of the complex to form aggregates. […] Indeed, the particle sizes observed when chlortetracycline is present was almost indistinguishable from particle formation by C12LE (4) alone.
Measurements were performed on a Brookhaven Instruments Corp. ZetaPALS instrument at 25 °C using a 660 nm laser and correlating scattering at 90°. Samples were prepared by initially dissolving the amphiphile in filtered DMSO obtained from ThermoFisher. Next, they were diluted into 1× PBS such that DMSO was fixed at 0.5% in 15 mL sterile conical tubes. 10× PBS was obtained commercially, then diluted 10-fold in MQ H2O. The mixture was vortexed and incubated at room temperature for 2 h, then transferred to a clean quartz cuvette and equilibrated in the instrument for 10 min at 25 °C. Ten measurements consisting of 2 min runs were made on each sample. The average effective diameter was calculated with standard error reported for at least three trials.

[15] = Homo sapiens, HEK293, percentage survival
[16] = Staphylococcus aureus, MH + Ca2+, read-out: MIC S. aureus, MH + Ca^2+
[17] = no additional antimicrobial, MICs in table limited to […]
[18] = Mueller Hinton II broth, 37 °C, pH 7.3, plasma or biological fluid, kinetic from dmso stock, Mueller Hinton II, pH 7.3, 2 h at 37 °C, read-out: Solubility limit in MHII
[19] = phosphate-buffered saline, 37 °C, aqueous buffer, kinetic from dmso stock, phosphate-buffered saline, 2 h at 37 °C, read-out: Solubility limit in PBS
[20] = Staphylococcus aureus, pH 6.4, MHII, pH 6.4, read-out: MIC S. aureus, MHII pH 6.4
[21] = Staphylococcus aureus, pH 7.4, MHII, pH 7.4, read-out: MIC S. aureus, MHII pH 7.4
[22] = Staphylococcus aureus, pH 8.4, MHII, pH 8.4, read-out: MIC S. aureus, MHII pH 8.4

Compound: CC1(C)S[C@@H]2[C@H](NC(=O)[C@H](N)c3ccccc3)C(=O)N2[C@H]1C(=O)O [Ampicillin, ampicillin]
pKa of the carboxyl groups [1]: 2.6–2.8

Compound: CCCCCCCCCCN1CCOCCOCCN(CCCCCCCCCC)CCOCCOCC1 [C10LE (1), N,N′-Di-n-decyl-4-13-diaza-18-crown-6]
MIC [2]: 11 µM (≈ 5.97 µg/mL) | MIC S. aureus 1199B ([3]; MHII media, 90% growth inhibition): 8 µM (≈ 4.34 µg/mL) | solubility at 2 h ([4]; Mueller Hinton II, pH 7.3, 2 h at 37 °C, read-out: Solubility limit in MHII): ≥128 µM | solubility at 2 h ([4]; phosphate-buffered saline, 2 h at 37 °C, read-out: Solubility limit in PBS): ≥128 µM | IC50 [5, 15]: 13 µM | IC50 ([5]; percentage survival): ≤ 10 µM | MIC ([6]; MH medium, read-out: MIC S. aureus, MH): 16 µM (≈ 8.69 µg/mL) | MIC ([6]; MHII, pH 6.4, read-out: MIC S. aureus, MHII pH 6.4): 16 µM (≈ 8.69 µg/mL) | MIC ([6]; MHII, pH 7.4, read-out: MIC S. aureus, MHII pH 7.4): ≥16 µM | MIC ([6]; MHII, pH 8.4, read-out: MIC S. aureus, MHII pH 8.4): 32 µM (≈ 17.4 µg/mL) | Change in MIC as the pH was increased from 6.4 to 8.4 [6]: changes in MIC were observed | MIC [6, 16]: 16 µM | MIC [7]: 8 µM (≈ 4.34 µg/mL) | Norfloxacin concentration required to effect 90% growth inhibition ([8]; lariat ether co-administered at 2 µM): 0.5 µM | Fold increase in the potency of norfloxacin ([8]; norfloxacin-resistant S. aureus 1199B, checkerboard): 128 fold | MIC [9]: 10 µM (≈ 5.43 µg/mL)

Compound: CCCCCCCCCC[N+]1(C)CCOCCOCC[N+](C)(CCCCCCCCCC)CCOCCOCC1 (stereo not shown) [C10LE•2MeI (3), N,N′-Di-n-decyl-4-13-diaza-18-crown-6 bis(methiodide)]
MIC [2, 17]: 24 µM | MIC [3]: 1 to 2 µM | solubility at 2 h [4, 18]: 64 µM | solubility at 2 h [4, 19]: ≥ 128 µM | IC50 [5, 15]: 36 µM | IC50 [10]: 53 µM | Change in MIC as the pH was increased from 6.4 to 8.4 [6]: unchanged | MIC [6, 16]: 16 µM | MIC ([6]; Staphylococcus aureus, MH medium, read-out: MIC S. aureus, MH): 2 µM | MIC [6, 20]: 2 µM | MIC [6, 21]: 2 µM | MIC [6, 22]: 2 µM | Potency as efflux pump inhibitor relative to reserpine [11]: approximately five times more potent | MIC [7]: 32 µM | Membrane depolarization (DiBAC4(3) fluorescence) [12]: greatest | PI penetration (membrane permeability) [13]: good penetration | MIC ([9]; Escherichia coli): 16 µM

Compound: CCCCCCCCCCCC[N+]1(C)CCOCCOCC[N+](C)(CCCCCCCCCCCC)CCOCCOCC1 (stereo not shown) [C12LE•2MeI (6), N,N′-Di-n-dodecyl-4-13-diaza-18-crown-6 bis(methiodide)]
MIC [2, 17]: 2 µM | MIC [3]: 1 µM | solubility at 2 h [4, 18]: 1 to 2 µM | solubility at 2 h [4, 19]: ≥ 128 µM | IC50 [5, 15]: 11 µM | IC50 ([5]; percentage survival): ≤ 10 µM | IC50 [10]: 25 µM | Change in MIC as the pH was increased from 6.4 to 8.4 [6]: unchanged | MIC [6, 20]: 2 µM | MIC [6, 21]: 2 µM | MIC [6, 22]: 2 µM | MIC [7]: 16 µM | PI penetration (membrane permeability) [13]: level of PI penetration similar to that observed for S. aureus alone | MIC ([9]; Escherichia coli): 4 µM

Slope of C12LE aggregation (DLS particle size) [14]: 3.2
Compound: CO/N=C(\C(=O)N[C@@H]1C(=O)N2C(C(=O)[O-])=C(C[N+]3(C)CCCC3)CS[C@H]12)c1csc(N)n1 [Cefepime, cefepime]

Slope relative to the particle size profile of C12LE alone ([14]; DLS): about 60% | Slope of C12LE aggregation (DLS particle size) [14]: 1.8
Compound: O=C(O)c1cn(C2CC2)c2cc(N3CCNCC3)c(F)cc2c1=O [Ciprofloxacin, ciprofloxacin]

Slope of C12LE aggregation (DLS particle size) [14]: 2.5
Compound: NC[C@H]1O[C@H](O[C@H]2[C@H](O)[C@@H](O[C@H]3O[C@H](CO)[C@@H](O)[C@H](N)[C@H]3O)[C@H](N)C[C@@H]2N)[C@H](O)[C@@H](O)[C@@H]1O [Kanamycin, kanamycin]
